Laboratory results from US20260242343A1, “COMPOUND SERVING AS DDR1 KINASE INHIBITOR, AND MEDICINE” (NIPPON SHINYAKU CO., LTD., priority 2022, published 2026).
Where a name gives a salt, the structure may show the parent alone.

Experiments:
[1] = test system: anti-glomerular basement membrane antibody-induced nephritis model; assay: In vivo efficacy study using anti-glomerular basement membrane antibody-induced nephritis model; set-up: species or system WKY/NCrlCrlj rats; conditions: rat, 24-hour urine
Procedure: The test compound was weighed and suspended in 0.5% methylcellulose (Shin-Etsu Chemical Co., Ltd.)+99.5% Otsuka distilled water (Otsuka Pharmaceutical Factory) to prepare a test sample solution for administration. 300 μL of phosphate buffered saline (Wako, 045-29795) containing 33.3 μg/mL anti-glomerular basement membrane antibody (Chondrex, 70221) was intravenously administered into the tail vein of WKY/NCrlCrlj rats (7-week-old males). 7 days after, the test sample was administered twice a day for 7 days, and the rats were moved to a metabolism/urine collection cage from the 6th to 7th days of the starting of the administration, and the 24-hour urine was collected. The weight of the collected urine was measured. 150 μL of urine was transferred to a sample cup (650-M, BMBio ST). The albumin concentration in urine was measured using a JCA-BM6050 automatic analyzer (JEOL). The amount of albumin in urine was determined with correction for the measured urine weight. The amounts of albumin in urine in the group without administration of anti-glomerular basement membrane antibody and the group with administration of vehicle were set at 0% and 100%, respectively, and the ratio of the amount of albumin in urine in the group administered with the test compound was calculated.

DDR1 protein = biological target: T1, DDR1 protein (Homo sapiens, UniProt Q08345); assay: Evaluation of DDR1 kinase inhibitory activity (LANCE Ultra TR-FRET); assay type: biochemical; conditions: DDR1 protein 0.5 nM, ATP 100 μM, 2 hours at room temperature; read-out: DDR-1 IC50
T1 construct: purchased Carna Biosciences 08-113
T1 sequence (Q08345 19-876 isoform Q08345-2 limits assumed): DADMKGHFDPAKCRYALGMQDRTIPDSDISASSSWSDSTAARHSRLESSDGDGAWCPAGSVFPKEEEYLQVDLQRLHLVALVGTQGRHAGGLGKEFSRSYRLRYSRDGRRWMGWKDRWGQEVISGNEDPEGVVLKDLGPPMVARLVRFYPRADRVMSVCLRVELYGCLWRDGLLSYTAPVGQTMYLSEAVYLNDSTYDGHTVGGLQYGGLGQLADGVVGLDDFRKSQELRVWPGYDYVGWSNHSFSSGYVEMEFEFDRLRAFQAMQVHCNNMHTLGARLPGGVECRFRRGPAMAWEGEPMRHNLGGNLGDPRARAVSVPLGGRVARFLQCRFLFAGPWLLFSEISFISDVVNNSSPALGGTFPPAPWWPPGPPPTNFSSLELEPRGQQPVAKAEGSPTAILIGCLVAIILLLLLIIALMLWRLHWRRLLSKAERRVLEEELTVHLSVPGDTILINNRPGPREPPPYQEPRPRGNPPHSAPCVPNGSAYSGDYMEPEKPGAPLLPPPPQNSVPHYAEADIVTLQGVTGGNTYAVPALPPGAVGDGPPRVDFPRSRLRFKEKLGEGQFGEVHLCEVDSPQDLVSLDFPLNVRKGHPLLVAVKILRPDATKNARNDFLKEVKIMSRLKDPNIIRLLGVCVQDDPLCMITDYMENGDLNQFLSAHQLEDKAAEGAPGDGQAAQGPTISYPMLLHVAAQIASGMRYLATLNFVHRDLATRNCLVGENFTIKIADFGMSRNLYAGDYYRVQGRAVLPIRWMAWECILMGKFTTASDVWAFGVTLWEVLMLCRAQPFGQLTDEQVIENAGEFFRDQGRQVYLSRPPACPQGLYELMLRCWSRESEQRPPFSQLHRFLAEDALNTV
Procedure: The test was performed in duplicate.

[2] = biological target: T2, DDR1 kinase in DDR1-expressing U2OS cells (Homo sapiens, UniProt Q08345); assay: DDR1 kinase inhibitory effect in DDR1-expressing U2OS cells (PathHunter, type I collagen stimulation); assay type: cell-based; conditions: type I collagen 50 μg/mL, 10% FBS, read-out: DDR-1 IC50
T2 construct: host or cells: U2OS
T2 sequence (Q08345 19-913): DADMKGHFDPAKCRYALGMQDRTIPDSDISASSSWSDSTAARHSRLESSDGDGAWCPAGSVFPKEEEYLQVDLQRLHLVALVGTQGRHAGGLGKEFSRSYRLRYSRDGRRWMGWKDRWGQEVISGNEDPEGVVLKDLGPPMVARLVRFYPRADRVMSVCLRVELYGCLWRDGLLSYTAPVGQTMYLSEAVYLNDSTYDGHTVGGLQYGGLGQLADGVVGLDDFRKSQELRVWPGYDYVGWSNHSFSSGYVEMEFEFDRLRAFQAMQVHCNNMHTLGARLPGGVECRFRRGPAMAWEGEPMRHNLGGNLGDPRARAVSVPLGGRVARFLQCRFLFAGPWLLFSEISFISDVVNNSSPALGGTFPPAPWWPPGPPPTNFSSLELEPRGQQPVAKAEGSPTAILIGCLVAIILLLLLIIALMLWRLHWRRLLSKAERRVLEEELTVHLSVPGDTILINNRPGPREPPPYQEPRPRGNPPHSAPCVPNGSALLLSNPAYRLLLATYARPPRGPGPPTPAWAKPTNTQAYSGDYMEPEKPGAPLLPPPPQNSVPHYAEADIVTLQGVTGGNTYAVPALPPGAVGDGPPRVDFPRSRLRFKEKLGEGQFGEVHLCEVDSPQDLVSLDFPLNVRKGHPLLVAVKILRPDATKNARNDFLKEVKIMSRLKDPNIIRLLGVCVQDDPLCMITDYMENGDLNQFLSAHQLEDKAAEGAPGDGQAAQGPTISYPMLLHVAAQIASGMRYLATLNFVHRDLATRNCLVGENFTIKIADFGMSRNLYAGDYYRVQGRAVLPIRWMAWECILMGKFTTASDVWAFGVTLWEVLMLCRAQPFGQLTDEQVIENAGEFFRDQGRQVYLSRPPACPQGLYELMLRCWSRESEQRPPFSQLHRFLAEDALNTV
Procedure: Test compounds in DMSO were prepared at 10 mM and diluted with DMSO to final concentrations of 1000, 100, 10, 1, and 0.1 μM. These solutions were diluted further with E-MEM medium (Fujifilm Wako Pure Chemical Industries, 051-07615) containing 10% fetal bovine serum (FBS, Gibco, 10270106) to 60,000, 6,000, 600, 60, 6, and 0.6 nM to obtain test sample solutions.
DDR1-expressing U2OS cells (DiscoverX, 93-0894C3) suspended at 2.5×10^5 cells/mL in 10% FBS+E-MEM medium were seeded in 384-well plates (DiscoverX, 92-0013) in 20 μL portions and cultured overnight at 37° C. and 5% CO2.
The next day, the test sample solutions as prepared were added at 5 μL/well to final concentrations of 10,000, 1,000, 100, 10, 1, and 0.1 nM. After incubation at 37° C. and 5% CO2 for 1 hour, type I collagen (Nitta Gelatin, 631-00771) was added at 5 μL/well to a final concentration of 50 μg/mL, and cultured overnight at 37° C. and 5% CO2.
The next day, the plate was left at room temperature for 1 hour, after which 5 μL/well of detection solution was added according to the instruction manual for the PathHunter (registered trademark) Detection Kit (DiscoverX, 93-0001). […] The test was performed in duplicate.

[3] = dose 10 mg/kg twice a day for 7 days
[4] = dose 50 mg/kg twice a day for 7 days

| SMILES | IC50 (DDR1 protein) | IC50 [2] | also measured |
| --- | --- | --- | --- |
| Nc1cnc(/C(F)=C/c2cc(C(=O)N[C@H]3C[C@H](OC(F)(F)F)C[C@@H]3O)ccc2OC(F)F)cn1 [Example 10, 3-[(1Z)-2-(5-Aminopyrazin-2-yl)-2-fluoroethenyl]-4-(difluoromethoxy)-N-[(1S,2S,4S)-2-hydroxy-4-(trifluoromethoxy)cyclopentyl]benzamide] | 1.2 nM | 72 nM | Urinary albumin (% of vehicle-administered group) [1, 3]: 69 % of vehicle-administered grou |
| NC(=O)c1ncc2cc(-c3cc(C(=O)N[C@H]4CCCC[C@@H]4O)ccc3C(F)(F)F)ccn12 [Example 14, 7-(5-{[(1S,2S)-2-Hydroxycyclohexyl]carbamoyl}-2-(trifluoromethyl)phenyl)imidazo[1,5-a]pyridine-3-carboxamide] | 2.5 nM | 83 nM | Urinary albumin (% of vehicle-administered group) [1, 4]: 76 % of vehicle-administered grou |
| Nc1cnc(C#Cc2cc(C(=O)N[C@H](CO)CCOC(F)(F)F)ccc2OC(F)F)cn1 [Example 7, 3-[2-(5-Aminopyrazin-2-yl)ethynyl]-4-(difluoromethoxy)-N-[(2S)-1-hydroxy-4-(trifluoromethoxy)butan-2-yl]benzamide] | 4.4 nM | 50 nM | Urinary albumin (% of vehicle-administered group) ([1]; dose 30 mg/kg twice a day for 7 days): 69 % of vehicle-administered grou |
| CCc1ccc(C(=O)N[C@H](CO)CCOC(F)(F)F)cc1NC(=O)c1cncc(-c2cccc(F)c2)c1 [Example 32, N-(2-Ethyl-5-{[(2S)-1-hydroxy-4-(trifluoromethoxy)butan-2-yl]carbamoyl}phenyl)-5-(3-fluorophenyl)pyridine-3-carboxamide] | 26 nM | 54 nM | – |
| O=C(N[C@H]1C[C@H](OC(F)(F)F)C[C@@H]1O)c1ccc(OC(F)F)c(C#Cc2cncnc2)c1 [Example 1, 4-(Difluoromethoxy)-N-[(1S,2S,4S)-2-hydroxy-4-(trifluoromethoxy)cyclopentyl]-3-[(pyrimidin-5-yl)ethynyl]benzamide] | 7 nM | 29 nM | Urinary albumin (% of vehicle-administered group) [1, 4]: 70 % of vehicle-administered grou |
| Nc1cnc(/C(F)=C/c2cc(C(=O)N[C@H]3CC(F)(F)CC[C@@H]3O)ccc2OC(F)F)cn1 [Example 25, 3-[(1Z)-2-(5-Aminopyrazin-2-yl)-2-fluoroethenyl]-N-[(1S,2S)-5,5-difluoro-2-hydroxycyclohexyl]-4-(difluoromethoxy)benzamide] | 1.7 nM | 19 nM | – |
| Nc1ncc(/C(F)=C/c2cc(C(=O)N[C@H](CO)c3cccc(F)c3)ccc2OC(F)F)cn1 [Example 34, 3-[(1Z)-2-(2-Aminopyrimidin-5-yl)-2-fluoroethenyl]-4-(difluoromethoxy)-N-[(1S)-1-(3-fluorophenyl)-2-hydroxyethyl]benzamide] | 8.2 nM | 44 nM | – |
| NC(=O)c1ncc2cc(-c3cc(C(=O)N[C@H]4C[C@H](OC(F)(F)F)C[C@@H]4O)ccc3C(F)(F)F)ccn12 [Example 29, 7-(5-{[(1S,2S,4S)-2-Hydroxy-4-(trifluoromethoxy)cyclopentyl]carbamoyl}-2-(trifluoromethyl)phenyl)imidazo[1,5-a]pyridine-3-carboxamide] | 0.81 nM | 3.1 nM | – |
| Nc1ncc(/C(F)=C/c2cc(C(=O)N[C@H]3CCCC[C@@H]3O)ccc2OC(F)F)cn1 [Example 38, 3-[(1Z)-2-(2-Aminopyrimidin-5-yl)-2-fluoroethenyl]-4-(difluoromethoxy)-N-[(1S,2S)-2-hydroxycyclohexyl]benzamide] | 12 nM | 99 nM | – |
| Nc1ncc(C#Cc2cc(C(=O)N[C@H](CO)Cc3ccc(Cl)cc3)ccc2OC(F)F)cn1 [Example 35, 3-[2-(2-Aminopyrimidin-5-yl)ethynyl]-N-[(2S)-1-(4-chlorophenyl)-3-hydroxypropan-2-yl]-4-(difluoromethoxy)benzamide hydrochloride] | 3.3 nM | 12 nM | – |
| Nc1ncc(C#Cc2cc(C(=O)N[C@H]3CC(F)(F)CC[C@@H]3O)ccc2OC(F)F)cn1 [Example 20, 3-[2-(2-Aminopyrimidin-5-yl)ethynyl]-N-[(1S,2S)-5,5-difluoro-2-hydroxycyclohexyl]-4-(difluoromethoxy)benzamide p-toluenesulfonate] | 3.1 nM | 16 nM | – |
| Nc1ncc(C#Cc2cc(C(=O)N[C@H]3C[C@H](OC(F)(F)F)C[C@@H]3O)ccc2OC(F)F)cn1 [Example 3, 3-[2-(2-Aminopyrimidin-5-yl)ethynyl]-4-(difluoromethoxy)-N-[(1S,2S,4S)-2-hydroxy-4-(trifluoromethoxy)cyclopentyl]benzamide] | 0.86 nM | 3.6 nM | Urinary albumin (% of vehicle-administered group) [1, 4]: 78 % of vehicle-administered grou |
| CCc1ncc(C(=O)N[C@H]2C[C@H](OC(F)(F)F)C[C@@H]2O)cc1/C=C(\F)c1cnc(N)nc1 [Example 11, 5-[(1Z)-2-(2-Aminopyrimidin-5-yl)-2-fluoroethenyl]-6-ethyl-N-[(1S,2S,4S)-2-hydroxy-4-(trifluoromethoxy)cyclopentyl]pyridine-3-carboxamide] | 22 nM | 120 nM | – |

The next molecules have a lower IC50 (DDR1 protein) than those just listed; values first:

| IC50 (DDR1 protein) | IC50 [2] | SMILES | also measured |
| --- | --- | --- | --- |
| 0.39 nM | 58 nM | Cn1cc(C#Cc2cc(C(=O)N[C@H]3C[C@H](OC(F)(F)F)C[C@@H]3O)ccc2OC(F)F)cn1 [Example 6, 4-(Difluoromethoxy)-N-[(1S,2S,4S)-2-hydroxy-4-(trifluoromethoxy)cyclopentyl]-3-[2-(1-methyl-1H-pyrazol-4-yl)ethynyl]benzamide] | Urinary albumin (% of vehicle-administered group) ([1]; dose 5 mg/kg twice a day for 7 days): 72 % of vehicle-administered grou |
| 0.56 nM | 18 nM | Nc1cnc(C#Cc2cc(C(=O)N[C@H]3C[C@H](OC(F)(F)F)C[C@@H]3O)ccc2OC(F)F)cn1 [Example 4, 3-[2-(5-Aminopyrazin-2-yl)ethynyl]-4-(difluoromethoxy)-N-[(1S,2S,4S)-2-hydroxy-4-(trifluoromethoxy)cyclopentyl]benzamide] | Urinary albumin (% of vehicle-administered group) ([1]; dose 25 mg/kg twice a day for 7 days): 69 % of vehicle-administered grou |
| 0.25 nM | 1.8 nM | COc1nc(N)ncc1C#Cc1cc(C(=O)N[C@H]2C[C@H](OC(F)(F)F)C[C@@H]2O)ccc1OC(F)F [Example 5, 3-[2-(2-Amino-4-methoxypyrimidin-5-yl)ethynyl]-4-(difluoromethoxy)-N-[(1S,2S,4S)-2-hydroxy-4-(trifluoromethoxy)cyclopentyl]benzamide] | Urinary albumin (% of vehicle-administered group) [1, 3]: 57 % of vehicle-administered grou |
| 0.27 nM | 11 nM | Nc1ncc(C#Cc2cc(C(=O)N[C@H]3CC4(CC4)C[C@@H]3O)ccc2OC(F)F)cn1 [Example 21, 3-[2-(2-Aminopyrimidin-5-yl)ethynyl]-4-(difluoromethoxy)-N-[(5S,6S)-6-hydroxyspiro[2.4]heptan-5-yl]benzamide] | – |
| 0.39 nM | 3.9 nM | Nc1ncc(/C=C(\F)c2cc(C(=O)N[C@H]3C[C@H](OC(F)(F)F)C[C@@H]3O)ccc2OC(F)F)cn1 [Example 39, 3-[(1Z)-2-(2-Aminopyrimidin-5-yl)-1-fluoroethenyl]-4-(difluoromethoxy)-N-[(1S,2S,4S)-2-hydroxy-4-(trifluoromethoxy)cyclopentyl]benzamide] | – |
| 0.25 nM | 4.1 nM | COc1nc(N)ncc1C#Cc1cc(C(=O)N[C@H]2CC3(CC3)C[C@@H]2O)ccc1OC(F)F [Example 23, 3-[2-(2-Amino-4-methoxypyrimidin-5-yl)ethynyl]-4-(difluoromethoxy)-N-[(5S,6S)-6-hydroxyspiro[2.4]heptan-5-yl]benzamide] | – |
